Assay results as given in US11407741B2, “Compounds and their use as selective inhibitors of caspase-2” (priority 2017, dated 2022).
Where a SMILES comes first, the peptide text is derived from it. [ ]: non-standard residue; d: D form. The star is where a group is joined. Pro(3S-CH2tBu) = CC(C)(C)C[C@H]1CCN[C@@H]1C(=O)O; Quinaldoyl = O=C(c1ccc2ccccc2n1)*; X1 = c1ncc(CO*)s1

Tested on: HeLa cells
Assay: Protection against vincristine-induced cell death, propidium iodide flow cytometry
Format: cell-based, human
Parameters: Index of cell death: key to the marks not given beside the values
Description: Human HeLa cells are used in this model. HeLa cells (cervical cancer cell line) were obtained from American Type Cell Collection (ATCC), and were cultured in Dulbecco's Modified Eagle Medium (DMEM, High Glucose, GlutaMAX™, Pyruvate) (Gibco, Life technologies), supplemented with 10% FCS and antibiotics (Gibco, Life technologies).
Human HeLa cells are treated with a solution of Vincristine (Sigma Aldrich) (diluted in water at 5 mM). Vincristine works partly by binding to the Tubulin protein, stopping the cell from separating its chromosomes during the metaphase; the cell then undergoes apoptosis through a caspase-dependent process.
Propidium iodide (PI) (Sigma Aldrich) is used to evaluate plasma membrane permeabilisation, a sign of cell death.
24 hours before pharmacological treatment, HeLa cells were plated into 24-well plates. […] Cells were exposed or not (control), to 20 nM Vincristine for 48 hours.
The content of each well is collected is added to PBS and then centrifuged (900 rpm; 5 min).
The pellet obtained is put into 300 μL of a medium comprising propidium iodide and incubated (37° C., 5% CO2) in the dark for 5 minutes and then subjected to flow cytometry analysis.
Fluorescence-Activated Cell Sorting was performed using a FACSCalibur cytometer (Becton Dickinson, San Jose, Calif.). For each sample, data from 5,000 Cells were registered and analyzed with the CellQuest Pro software (Becton Dickinson). Analysis included FSC (Forward Scatter/relating to the cells'size) and SSC (Side Scatter/relating to the cells' granularity) parameters together with FL-1 and FL-3 channel.
The percentage of propidium iodide positive cells gives an estimation of cell death.

CC(C)[C@H](NC(=O)c1ccc2ccccc2n1)C(=O)N[C@@H](CC(=O)O)C(=O)N[C@H](C(=O)N1CC[C@H](CC(C)(C)C)[C@H]1C(=O)N[C@@H](CC(=O)O)C(=O)OCc1cncs1)C(C)C [Compound 3, (S)-4-(((S)-1-((2S,3S)-2-(((S)-3-carboxy-1-oxo-1-(thiazol-5 - ylmethoxy)propan-2-yl)carbamoyl)-3-neopenthylpyrrolidin-1-yl)-3-methyl-1-oxobutan-2-yl)amino)-3-((S)-3-methyl-2-(quinoline-2-carboxamido)butanamido)-4-oxobutanoic acid] (Quinaldoyl-VDV[Pro(3S-CH2tBu)]D-X1)
Index of cell death (20 nM Vincristine for 48 hours, propidium iodide positive cells): ++ | Protection against apoptotic death induced by vincristine (compound added 1 hour before vincristine): protect the cells against apoptotic death induced by vincristine in a dose-dependent manner
